Results as given in US20230075856A1, “CYCLIC SULFAMIDE COMPOUNDS FOR TREATMENT OF HBV” (Assembly Biosciences, Inc., priority 2018, published 2023).

Test system: HBV viral load production from HepAD38 cells
Experiment: Viral production from HepAD38 cells: viral load in supernatant by qPCR of the HBV core sequence
Type: cell-based
Conditions: Hepatitis B virus, HePAD38, 120 h, 5 days incubation, qPCR of supernatant HBV DNA vs DMSO control, read-out: viral load lowering EC50 (Activity)
Procedure, shortened: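 Viral load was measured by qPCR of the HBV core region in supernatant, quantified against DNA standards and compared with DMSO wells. Cells (50,000/well, tetracycline withdrawn, 2% FBS) received compound from 10 μM final for 5 days; EC50 from four-parameter nonlinear regression.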

Row | Structure (SMILES) | EC50
1 | CN1C(C(=O)Nc2ccc(F)c(Cl)c2)CC(C(=O)NC2CCN(c3cc(CN4CCCCC4)ccn3)CC2)NS1(=O)=O (stereo not drawn) [Compound 975] | < 0.05 µM
2 | CN1C(C(=O)Nc2ccc(F)c(Cl)c2)CC(C(=O)NC2CCCc3nc(Br)sc32)NS1(=O)=O (stereo not drawn) [Compound 978] | < 0.05 µM
3 | CN1CCC(Oc2ccc(-c3ncc(CNC(=O)C4CC(C(=O)Nc5ccc(F)c(Cl)c5)N(C)S(=O)(=O)N4)s3)cc2)CC1 (stereo not drawn) [Compound 979] | < 0.05 µM
4 | CN1C(C(=O)Nc2ccc(F)c(Cl)c2)CC(C(=O)NCc2cc(Br)no2)NS1(=O)=O (stereo not drawn) [Compound 980] | 0.1 to 10 µM
5 | COc1ccccc1-c1ncc(CNC(=O)C2CC(C(=O)Nc3ccc(F)c(Cl)c3)N(C)S(=O)(=O)N2)s1 (stereo not drawn) [Compound 987] | < 0.05 µM
6 | COc1ccc(-c2ncc(CNC(=O)C3CC(C(=O)Nc4ccc(F)c(Cl)c4)N(C)S(=O)(=O)N3)s2)c(Cl)c1 (stereo not drawn) [Compound 988] | < 0.05 µM
7 | CN1C(C(=O)Nc2ccc(F)c(Cl)c2)CC(C(=O)NCc2ccn(-c3ccccc3)n2)NS1(=O)=O (stereo not drawn) [Compound 991] | < 0.05 µM
8 | CN1C(C(=O)Nc2ccc(F)c(Cl)c2)CC(C(=O)NCc2csc(Cl)n2)NS1(=O)=O (stereo not drawn) [Compound 1006] | 0.05 to 0.1 µM
9 | CC(NC(=O)C1CC(C(=O)Nc2ccc(F)c(Cl)c2)N(C)S(=O)(=O)N1)c1csc(Cl)n1 (stereo not drawn) [Compound 1007] | < 0.05 µM
10 | CN1C(C(=O)Nc2ccc(F)c(Cl)c2)CC(C(=O)NCc2ncc(-c3ccc(O)cc3)s2)NS1(=O)=O (stereo not drawn) [Compound 1009] | < 0.05 µM
11 | CN1C(C(=O)Nc2ccc(F)c(Cl)c2)CC(C(=O)NCc2nc3ccc(O)cc3s2)NS1(=O)=O (stereo not drawn) [Compound 1010] | < 0.05 µM
12 | COc1ccc2nc(CNC(=O)C3CC(C(=O)Nc4ccc(F)c(Cl)c4)N(C)S(=O)(=O)N3)sc2c1 (stereo not drawn) [Compound 1011] | < 0.05 µM
13 | CN1C(C(=O)Nc2ccc(F)c(Cl)c2)CC(C(=O)NC2CCN(c3ccnc(Cl)c3)CC2)NS1(=O)=O (stereo not drawn) [Compound 1012] | < 0.05 µM
14 | CN1C(C(=O)Nc2ccc(F)c(Cl)c2)CC(C(=O)NC(c2ccccc2)c2ccccc2)NS1(=O)=O (stereo not drawn) [Compound 1014] | < 0.05 µM
15 | Cc1nc(-c2ccccc2Cl)sc1CNC(=O)C1CC(C(=O)Nc2ccc(F)c(Cl)c2)N(C)S(=O)(=O)N1 (stereo not drawn) [Compound 1015] | < 0.05 µM
16 | Cc1nc(-c2ccccc2F)sc1CNC(=O)C1CC(C(=O)Nc2ccc(F)c(Cl)c2)N(C)S(=O)(=O)N1 (stereo not drawn) [Compound 1016] | < 0.05 µM
17 | Cc1ccccc1-c1nc(C)c(CNC(=O)C2CC(C(=O)Nc3ccc(F)c(Cl)c3)N(C)S(=O)(=O)N2)s1 (stereo not drawn) [Compound 1017] | < 0.05 µM
18 | CN1C(C(=O)Nc2ccc(F)c(Cl)c2)CC(C(=O)NC2CCCc3nc(-c4ccccc4Cl)sc32)NS1(=O)=O (stereo not drawn) [Compound 1018] | < 0.05 µM
19 | CC(NC(=O)C1CC(C(=O)Nc2ccc(F)c(Cl)c2)N(C)S(=O)(=O)N1)c1cnc(-c2ccccc2Cl)s1 (stereo not drawn) [Compound 1019] | < 0.05 µM
20 | CN1C(C(=O)Nc2ccc(F)c(Cl)c2)CC(C(=O)NCc2cc(-c3ccccc3Cl)no2)NS1(=O)=O (stereo not drawn) [Compound 1025] | < 0.05 µM
21 | CN1C(C(=O)Nc2ccc(F)c(Cl)c2)CC(C(=O)NCc2cnc(-c3ccc(O)cc3Cl)s2)NS1(=O)=O (stereo not drawn) [Compound 1028] | < 0.05 µM
22 | CC(NC(=O)C1CC(C(=O)Nc2ccc(F)c(Cl)c2)N(C)S(=O)(=O)N1)c1csc(-c2ccccc2Cl)n1 (stereo not drawn) [Compound 1029] | 0.1 to 10 µM
23 | CC(NC(=O)C1CC(C(=O)Nc2ccc(F)c(Cl)c2)N(C)S(=O)(=O)N1)c1cnc(Cl)s1 (stereo not drawn) [Compound 1030] | < 0.05 µM
24 | Cc1nc(Cl)sc1CNC(=O)C1CC(C(=O)Nc2ccc(F)c(Cl)c2)N(C)S(=O)(=O)N1 (stereo not drawn) [Compound 1031] | < 0.05 µM
25 | CN1C(C(=O)Nc2ccc(F)c(Cl)c2)CC(C(=O)NC2CCN(Cc3cccnc3Br)CC2)NS1(=O)=O (stereo not drawn) [Compound 1033] | 0.1 to 10 µM
26 | CN1C(C(=O)Nc2ccc(F)c(Cl)c2)CC(C(=O)NC2CCN(c3ccnc(Br)c3)CC2)NS1(=O)=O (stereo not drawn) [Compound 1036] | < 0.05 µM
27 | CN1C(C(=O)Nc2ccc(F)c(Cl)c2)CC(C(=O)NC2CCN(c3ccnc(F)c3)CC2)NS1(=O)=O (stereo not drawn) [Compound 1040] | < 0.05 µM
